Values quoted from earlier work in patent US5008416A, “Organogermanium compound, process for the preparation of same as well as use thereof” (Sanwa Kagaku Kenkyusho Co., Ltd., priority 1989, dated 1991).

Columns and labels:
[1] = Jap. Pat. No. Sho 61-151123(A), U.S. Pat. No. 4,889,715, EP 0186505; cited from earlier work
[2] = Cancer Res., Vol. 42, page 2852 (1982); cited from earlier work

Row | Compound | Immunomodulating activity (result in words) [1] | Anti-cancer or antitumor activity (result in words) [2]
1 | 3-oxygermylpropionic acid polymer | shows an excellent immunomodulating activity | –
2 | C[CH2][Ge]1([CH2]C)[CH2]CC2(CCN(CCCN(C)C)C2)C[CH2]1 [Spirogermanium] | – | shows an anti-cancer or antitumor activity
